The values below come from patent US10479780B2, “Aminopyrazole derivatives” (Chugai Seiyaku Kabushiki Kaisha, priority 2015, dated 2019).

Holding throughout (assay type): biochemical
One assay deals with T1, human Yes1 enzyme (Homo sapiens, UniProt P07947).
T1 construct: made in house
Description: Yes1 enzyme inhibitory activity (time-resolved fluorometry, biotinylated peptide phosphorylation). The settings on record: read-out: YES_IC50. Summed up:
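Inhibition was expressed against a compound-free control to give IC50, using TR-FRET read-out (Eu-cryptate anti-pTyr antibody, streptavidin-XL665).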

A further assay concerns the target T2, human Lck enzyme (Homo sapiens, UniProt P06239).
T2 construct: purchased Carna Biosciences, Inc. 08-170
Description: Lck enzyme inhibitory activity (time-resolved fluorometry, biotinylated peptide phosphorylation). Particulars: read-out: LCK_IC50. The essentials:
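Readout pairs a europium cryptate-labelled anti-phosphotyrosine antibody with XL665-streptavidin, measured by time-resolved fluorescence. IC50 derived from percent inhibition against untreated controls.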

The target in the next assay is T3, human Src enzyme (Homo sapiens, UniProt P12931).
T3 construct: purchased Carna Biosciences, Inc. 08-173
T3 sequence (P12931 whole entry): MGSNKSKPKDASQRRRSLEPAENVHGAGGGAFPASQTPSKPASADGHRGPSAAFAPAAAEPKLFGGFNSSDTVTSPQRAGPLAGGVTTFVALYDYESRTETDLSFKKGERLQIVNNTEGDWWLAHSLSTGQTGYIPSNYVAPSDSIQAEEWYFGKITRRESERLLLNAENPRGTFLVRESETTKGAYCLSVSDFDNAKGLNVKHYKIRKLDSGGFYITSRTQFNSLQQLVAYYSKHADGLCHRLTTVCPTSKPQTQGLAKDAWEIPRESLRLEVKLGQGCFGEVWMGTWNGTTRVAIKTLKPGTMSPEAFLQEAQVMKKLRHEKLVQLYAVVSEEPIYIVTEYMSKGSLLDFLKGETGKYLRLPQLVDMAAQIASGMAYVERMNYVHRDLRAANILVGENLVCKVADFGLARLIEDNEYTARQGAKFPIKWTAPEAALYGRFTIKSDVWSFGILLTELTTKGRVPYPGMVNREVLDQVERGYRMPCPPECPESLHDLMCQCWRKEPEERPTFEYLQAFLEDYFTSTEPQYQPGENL
Description: Src enzyme inhibitory activity (time-resolved fluorometry, biotinylated peptide phosphorylation). Particulars: read-out: SRC_IC50. Summed up: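 Compounds were tested for blocking tyrosine phosphorylation of a biotinylated peptide substrate by recombinant human Src. Phosphorylated product was quantified by time-resolved fluorometry using europium cryptate and XL665 conjugates, and IC50 was calculated against the compound-free control.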

Where [1] appears, read: biotinylated peptide phosphorylation.

Read-outs that look alike come from different tables or passages of the source.

T2 sequence (P06239 whole entry): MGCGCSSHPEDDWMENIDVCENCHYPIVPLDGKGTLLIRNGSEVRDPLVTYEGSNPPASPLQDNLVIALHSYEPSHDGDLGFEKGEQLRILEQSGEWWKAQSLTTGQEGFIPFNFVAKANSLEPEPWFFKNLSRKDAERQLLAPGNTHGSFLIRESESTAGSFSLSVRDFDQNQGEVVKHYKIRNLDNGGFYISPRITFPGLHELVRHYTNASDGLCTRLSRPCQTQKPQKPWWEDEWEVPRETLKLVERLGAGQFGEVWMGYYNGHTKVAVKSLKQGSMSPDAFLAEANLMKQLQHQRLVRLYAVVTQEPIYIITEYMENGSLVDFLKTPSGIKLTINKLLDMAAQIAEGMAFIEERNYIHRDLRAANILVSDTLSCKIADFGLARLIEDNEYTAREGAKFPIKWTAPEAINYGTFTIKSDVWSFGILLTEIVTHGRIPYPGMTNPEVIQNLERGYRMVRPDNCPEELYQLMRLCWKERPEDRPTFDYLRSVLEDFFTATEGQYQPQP
T1 sequence (P07947 whole entry): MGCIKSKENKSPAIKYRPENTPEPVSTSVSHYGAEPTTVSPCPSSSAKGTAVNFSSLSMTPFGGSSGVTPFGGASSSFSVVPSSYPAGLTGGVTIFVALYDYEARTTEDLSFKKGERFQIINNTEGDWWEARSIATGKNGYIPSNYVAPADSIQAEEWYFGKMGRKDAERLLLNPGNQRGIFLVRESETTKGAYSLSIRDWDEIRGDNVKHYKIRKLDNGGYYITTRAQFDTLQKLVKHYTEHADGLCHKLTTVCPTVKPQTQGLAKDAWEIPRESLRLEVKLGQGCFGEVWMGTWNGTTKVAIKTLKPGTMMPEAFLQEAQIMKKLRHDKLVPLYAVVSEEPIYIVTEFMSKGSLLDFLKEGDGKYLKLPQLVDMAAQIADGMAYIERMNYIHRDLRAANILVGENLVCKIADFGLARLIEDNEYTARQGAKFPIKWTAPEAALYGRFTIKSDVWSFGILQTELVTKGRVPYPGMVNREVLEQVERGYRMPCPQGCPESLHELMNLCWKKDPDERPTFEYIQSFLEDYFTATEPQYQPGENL

For the compound `Cc1cc2cc(C(=O)c3cnn(-c4cnc(Oc5c(F)cccc5F)cc4C)c3N)[nH]c2cc1NS(=O)(=O)c1cncc(F)c1` [Example 5-1-546, N-[2-[5-amino-1-[6-(2,6-difluorophenoxy)-4-methylpyridin-3-yl]pyrazole-4-carbonyl]-5-methyl-1H-indol-6-yl]-5-fluoropyridine-3-sulfonamide], the IC50 was determined as 0.0061 µM at human Yes1 enzyme (setting [1]), 0.078 µM on human Lck enzyme (setting [1]) and 0.68 µM at human Src enzyme (setting [1]).
Regarding `Cc1cc(Oc2c(F)cccc2F)ncc1-n1ncc(C(=O)c2cc3cc(F)c(NS(=O)(=O)c4cc(F)cc(F)c4)cc3[nH]2)c1N` [Example 5-1-563, N-[2-[5-amino-1-[6-(2,6-difluorophenoxy)-4-methylpyridin-3-yl]pyrazole-4-carbonyl]-5-fluoro-1H-indol-6-yl]-3,5-difluorobenzenesulfonamide], the figures for the IC50 on human Yes1 enzyme (setting [1]), on human Lck enzyme (setting [1]) and on human Src enzyme (setting [1]) were 0.017 µM, 0.59 µM and 1.2 µM, respectively.
As for `Cc1cc(Oc2ccccc2F)ncc1-n1ncc(C(=O)c2cc3cc(OC4CCN(C(C)C)CC4)c(Br)cc3[nH]2)c1N` [Example 5-1-153, [5-amino-1-[6-(2-fluorophenoxy)-4-methylpyridin-3-yl]pyrazol-4-yl]-[6-bromo-5-(1-propan-2-ylpiperidin-4-yl)oxy-1H-indol-2-yl] methanone], the results for the IC50 at human Yes1 enzyme, on human Lck enzyme and on human Src enzyme were 0.00053 µM, 0.003 µM and 0.0079 µM, respectively.
For the compound `Cc1cc(Oc2ccccc2F)ncc1-n1ncc(C(=O)c2cc3cc(OC(F)F)c(NS(=O)(=O)C4CC4)cc3[nH]2)c1N` [Example 4-24-007, N-[2-[5-amino-1-[6-(2-fluorophenoxy)-4-methylpyridin-3-yl]pyrazole-4-carbonyl]-5-(difluoromethoxy)-1H-indol-6-yl]cyclopropanesulfonamide], the figures for the IC50 at human Yes1 enzyme (setting [1]), on human Lck enzyme (setting [1]) and at human Src enzyme (setting [1]) were 0.004 µM, 0.061 µM and 0.23 µM, respectively.
On to `Cc1cc(-n2ncc(C(=O)c3cc4cc(N5CCOCC5)c(N5CCN(S(C)(=O)=O)CC5)cc4[nH]3)c2N)ccc1Oc1ccccc1F` [Example 5-1-158, [5-amino-1-[4-(2-fluorophenoxy)-3-methylphenyl]pyrazol-4-yl]-[6-(4-methylsulfonylpiperazin-1-yl)-5-morpholin-4-yl-1H-indol-2-yl]methanone], for which the IC50 was 0.0009 µM at human Yes1 enzyme, 0.042 µM at human Lck enzyme and 0.076 µM at human Src enzyme.
As to `Cc1cc2cc(C(=O)c3cnn(-c4c(C)cc(Oc5ccccc5F)cc4F)c3N)[nH]c2cc1N1CCC(N2CCOCC2)CC1` [Example 5-1-085, [5-amino-1-[2-fluoro-4-(2-fluorophenoxy)-6-methylphenyl]pyrazol-4-yl]-[5-methyl-6-(4-morpholin-4-ylpiperidin-1-yl)-1H-indol-2-yl] methanone], the values for the IC50 on human Yes1 enzyme, on human Lck enzyme and on human Src enzyme were 0.0023 µM, 0.002 µM and 0.021 µM, respectively.
As to `COc1cc2cc(C(=O)c3cnn(-c4cnc(Oc5c(F)cccc5F)cc4C)c3N)[nH]c2cc1NS(C)(=O)=O` [Example 4-1-009, N-[2-[5-amino-1-[6-(2,6-difluorophenoxy)-4-methylpyridin-3-yl]pyrazole-4-carbonyl]-5-methoxy-1H-indol-6-yl]methanesulfonamide], the IC50 on human Yes1 enzyme (setting [1]) worked out at 0.0011 µM; at human Lck enzyme (setting [1]), 0.0045 µM; on human Src enzyme (setting [1]), 0.059 µM.
With `Cc1cc(Oc2c(F)cccc2F)ncc1-n1ncc(C(=O)c2cc3cc(OC4CCN(C(C)C)CC4)c(N4CCOCC4)cc3[nH]2)c1N` [Example 5-1-185, [5-amino-1-[6-(2,6-difluorophenoxy)-4-methylpyridin-3-yl]pyrazol-4-yl]-[6-morpholin-4-yl-5-(1-propan-2-ylpiperidin-4-yl)oxy-1H-indol-2-yl]methanone], the values for the IC50 on human Yes1 enzyme, on human Lck enzyme and on human Src enzyme were 0.00036 µM, 0.0017 µM and 0.0025 µM, respectively.
Take `Cc1cc(Oc2cccc(Cl)c2)ncc1-n1ncc(C(=O)c2cc3cc(F)c(NS(=O)(=O)C4CC4)cc3[nH]2)c1N` [Example 4-7-016, N-[2-[5-amino-1-[6-(3-chlorophenoxy)-4-methylpyridin-3-yl]pyrazole-4-carbonyl]-5-fluoro-1H-indol-6-yl]cyclopropanesulfonamide]: the IC50 on human Yes1 enzyme (setting [1]) was found to be 0.0046 µM; at human Lck enzyme (setting [1]), 0.11 µM; at human Src enzyme (setting [1]), 0.21 µM.
With `Cc1cc(Oc2ccccc2F)ncc1-n1ncc(C(=O)c2cc3cc(OCC(F)F)c(NS(C)(=O)=O)cc3[nH]2)c1N` [Example 4-24-028, N-[2-[5-amino-1-[6-(2-fluorophenoxy)-4-methylpyridin-3-yl]pyrazole-4-carbonyl]-5-(2,2-difluoroethoxy)-1H-indol-6-yl]methanesulfonamide], the IC50 at human Yes1 enzyme (setting [1]) stood at 0.0012 µM; at human Lck enzyme (setting [1]), 0.014 µM; at human Src enzyme (setting [1]), 0.037 µM.
Regarding `Cc1cc(Oc2ccccc2F)ccc1-n1ncc(C(=O)c2cc3cc(OCC(F)F)c(N4C(=O)OC[C@H]4Cc4ccccc4)cc3[nH]2)c1N` [Example 5-1-244, (4R)-3-[2-[5-amino-1-[4-(2-fluorophenoxy)-2-methylphenyl]pyrazole-4-carbonyl]-5-(2,2-difluoroethoxy)-1H-indol-6-yl]-4-benzyl-1,3-oxazolidin-2-one], the results for the IC50 at human Yes1 enzyme, at human Lck enzyme and on human Src enzyme were 0.0099 µM, 0.04 µM and 0.018 µM, respectively.
As for `Cc1cc(Oc2c(F)cccc2Cl)ncc1-n1ncc(C(=O)c2cc3cc(F)c(NS(=O)(=O)CCCF)cc3[nH]2)c1N` [Example 4-2-024, N-[2-[5-amino-1-[6-(2-chloro-6-fluorophenoxy)-4-methylpyridin-3-yl]pyrazole-4-carbonyl]-5-fluoro-1H-indol-6-yl]-3-fluoropropane-1-sulfonamide], the IC50 at human Yes1 enzyme (setting [1]) was 0.0021 µM; on human Lck enzyme (setting [1]), 0.012 µM; at human Src enzyme (setting [1]), 0.06 µM.
The corresponding values for `Cc1cc2cc(C(=O)c3cnn(-c4ccc(Oc5cccc(F)c5F)cc4C)c3N)[nH]c2cc1NS(=O)(=O)N1CCOCC1` [Example 4-2-106, N-[2-[5-amino-1-[4-(2,3-difluorophenoxy)-2-methylphenyl]pyrazole-4-carbonyl]-5-methyl-1H-indol-6-yl]morpholine-4-sulfonamide] are 0.0014 µM, 0.051 µM and 0.18 µM.
For `Cc1cc(Oc2ccc(F)cc2)ncc1-n1ncc(C(=O)c2cc3cc(F)c(NS(=O)(=O)CCCF)cc3[nH]2)c1N` [Example 4-2-027, N-[2-[5-amino-1-[6-(4-fluorophenoxy)-4-methylpyridin-3-yl]pyrazole-4-carbonyl]-5-fluoro-1H-indol-6-yl]-3-fluoropropane-1-sulfonamide], in that order: 0.01 µM, 0.03 µM and 0.095 µM.
The corresponding values for `COc1ccnc(S(=O)(=O)Nc2cc3[nH]c(C(=O)c4cnn(-c5cnc(Oc6c(F)cccc6F)cc5C)c4N)cc3cc2C)c1` [Example 5-1-511, N-[2-[5-amino-1-[6-(2,6-difluorophenoxy)-4-methylpyridin-3-yl]pyrazole-4-carbonyl]-5-methyl-1H-indol-6-yl]-4-methoxypyridine-2-sulfonamide] are 0.0027 µM, 0.24 µM and 0.52 µM.
As for `Cc1cc(Oc2ccccc2F)ncc1-n1ncc(C(=O)c2cc3cc(N4CCOCC4)c(NS(=O)(=O)CCCF)cc3[nH]2)c1N` [Example 4-24-016, N-[2-[5-amino-1-[6-(2-fluorophenoxy)-4-methylpyridin-3-yl]pyrazole-4-carbonyl]-5-morpholin-4-yl-1H-indol-6-yl]-3-fluoropropane-1-sulfonamide], the IC50 was found to be 0.00087 µM on human Yes1 enzyme (setting [1]), 0.032 µM at human Lck enzyme (setting [1]) and 0.078 µM at human Src enzyme (setting [1]).
For `Cc1cnc(F)c(S(=O)(=O)Nc2cc3[nH]c(C(=O)c4cnn(-c5cnc(Oc6c(F)cccc6F)cc5C)c4N)cc3cc2F)c1` [Example 5-1-523, N-[2-[5-amino-1-[6-(2,6-difluorophenoxy)-4-methylpyridin-3-yl]pyrazole-4-carbonyl]-5-fluoro-1H-indol-6-yl]-2-fluoro-5-methylpyridine-3-sulfonamide], in that order: 0.0063 µM, 0.2 µM and 0.45 µM.
For `Cc1cc2cc(C(=O)c3cnn(-c4ccc(Oc5ccccc5F)cc4C)c3N)[nH]c2cc1NS(C)(=O)=O` [Example 4-2-053, N-[2-[5-amino-1-[4-(2-fluorophenoxy)-2-methylphenyl]pyrazole-4-carbonyl]-5-methyl-1H-indol-6-yl]methanesulfonamide], in that order: 0.00034 µM, 0.0051 µM and 0.019 µM.
As for `Cc1cc(Oc2ccccc2F)ccc1-n1ncc(C(=O)c2cc3cc(OC(F)F)c(N4C(=O)C(C)(C)NC4=S)cc3[nH]2)c1N` [Example 4-23-039, 3-[2-[5-amino-1-[4-(2-fluorophenoxy)-2-methylphenyl]pyrazole-4-carbonyl]-5-(difluoromethoxy)-1H-indol-6-yl]-5,5-dimethyl-2-sulfanylideneimidazolidin-4-one], the IC50 on human Yes1 enzyme (setting [1]) was determined as 0.00081 µM; at human Lck enzyme (setting [1]) it was 0.016 µM; on human Src enzyme (setting [1]), 0.06 µM.
In the case of `Cc1cc(Oc2ccccc2F)ccc1-n1ncc(C(=O)c2cc3cc(N4CCOCC4)c(N4CCCS4(=O)=O)cc3[nH]2)c1N` [Example 4-25-006, [5-amino-1-[4-(2-fluorophenoxy)-2-methylphenyl]pyrazol-4-yl]-[6-(1,1-dioxo-1,2-thiazolidin-2-yl)-5-morpholin-4-yl-1H-indol-2-yl]methanone], the values for the IC50 on human Yes1 enzyme (setting [1]), at human Lck enzyme (setting [1]) and at human Src enzyme (setting [1]) were 0.0011 µM, 0.009 µM and 0.018 µM, respectively.
